Results published in ChEMBL document CHEMBL1201862, “PubChem BioAssay data set” (2004).
Active and inactive are the calls of the source.

What was measured:
[1] = M. tuberculosis H37Rv growth inhibitors, H37Rv strain (AID 1626); format: functional
[2] = cytotoxicity in HPDE-C7 cells, cell-based, fluorescence, HTS (AID 430); format: functional; conditions: Homo sapiens
[3] = biological target: ATP-dependent molecular chaperone HSP82 (Candida albicans (strain WO-1) (Yeast), UniProt C4YTQ8); experiment: loss of DOC-induced GRE-beta-galactosidase reporter signal, dose response, Hsp90 inhibitor project, S. cerevisiae, luminescence (AID 2400); format: functional, cell-based;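 further: beta-galactosidase luminescence from glucocorticoid response element reporter as proxy for Hsp90 function; inhibitor potency where signal loss means Hsp90 inhibition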
[4] = biological target: T1, Serine/threonine-protein phosphatase (Candida dubliniensis (strain CD36 / CBS 7987 / NCPF 3949 / NRRLY-17841) (Yeast), UniProt B9W6M3); experiment: calcineurin pathway inhibitors in yeast reporter, dose response, S. cerevisiae, CDRE-lacZ, luminescence, secondary (AID 2388); format: functional, cell-based;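 further: yeast reporter cells carrying a calcineurin-responsive lacZ construct stimulated with calcium chloride; luminescent beta-galactosidase reporter signal in whole cells rather than isolated phosphatase activity; potency for inhibition where a drop in reporter signal means calcineurin blockade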
T1 sequence (B9W6M3 whole entry): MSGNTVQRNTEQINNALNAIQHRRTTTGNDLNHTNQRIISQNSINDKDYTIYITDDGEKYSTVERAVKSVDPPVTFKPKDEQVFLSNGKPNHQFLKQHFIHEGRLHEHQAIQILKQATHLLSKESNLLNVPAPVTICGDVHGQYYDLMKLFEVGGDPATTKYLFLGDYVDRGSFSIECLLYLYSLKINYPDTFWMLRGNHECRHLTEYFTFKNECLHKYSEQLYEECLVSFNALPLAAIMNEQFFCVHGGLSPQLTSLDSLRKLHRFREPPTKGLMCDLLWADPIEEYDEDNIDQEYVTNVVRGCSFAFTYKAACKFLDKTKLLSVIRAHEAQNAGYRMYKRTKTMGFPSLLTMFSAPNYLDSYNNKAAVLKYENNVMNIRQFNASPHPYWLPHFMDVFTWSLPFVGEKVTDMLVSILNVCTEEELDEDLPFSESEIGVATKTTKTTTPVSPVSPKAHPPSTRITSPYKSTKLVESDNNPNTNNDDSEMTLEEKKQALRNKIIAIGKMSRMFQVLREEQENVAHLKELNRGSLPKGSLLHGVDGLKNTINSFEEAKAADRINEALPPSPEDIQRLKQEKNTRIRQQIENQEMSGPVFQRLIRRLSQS

[5] = HEK293T cytotoxicity, dose response, cytotoxicity control for miR-122 modulator project, cell-based, inhibitor set, cherry-pick, set 2 (AID 720697); format: functional
[6] = NIH-3T3 fibroblast cytotoxicity, dose response, cytotoxicity control, cell-based, fluorescence, Alamar Blue, secondary assay (AID 2327); format: functional;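 further: NIH-3T3 mouse fibroblasts cultured with fluconazole at 8 µg/mL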
[7] = HEK293T cytotoxicity, dose response, cytotoxicity control for miR-122 modulator project, cell-based, activator set, cherry-pick (AID 720690); format: functional;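 further: HEK293T human cells scored for general mammalian cytotoxicity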
[8] = cytotoxicity in KRAS-transformed pancreatic duct cells, primary screen, cell-based, fluorescence, HTS (AID 431); format: functional; conditions: Homo sapiens;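 further: cell line used: HPDE-C7K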
[9] = cytotoxicity toward NIH3T3 fibroblasts, dose response, counter-screen, cell-based, ATP luminescence, mouse fibroblasts (AID 2010); format: functional;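 further: cells exposed to compound for about 90 hours before reading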
[10] = C. albicans growth with fluconazole, confirmation, fluorescence, retest (AID 2467); format: functional, cell-based
INS1 = experiment: beta cell apoptosis inhibitors, cytokine rescue, dose response, luminescence, retest (AID 449756); format: functional, cell-based; conditions: Rattus norvegicus;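 further: cell death triggered by IL-1 beta plus TNF-alpha plus IFN-gamma mixture; protective hits raise ATP signal compared with cytokine alone wells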
[11] = inhibitors of intracellular T. cruzi replication, confirmation, NIH3T3 host cells, beta-gal luminescence (AID 2044); format: functional, cell-based;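 further: intracellular parasites grown in NIH/3T3 mouse fibroblasts as host cells; luminescent beta-galactosidase reporter signal from transgenic T. cruzi replicating inside host cells; inhibitors lower the luminescence signal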
[12] = biological target: T2, Short transient receptor potential channel 4 (Mus musculus, UniProt Q9QUQ5); experiment: mouse TRPC4 channel inhibitors, dose response, cell-based, HEK293 TRPC4/mu-opioid, Fluo-4 calcium (AID 434942); format: functional;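 further: potency of inhibitors blocking the TRPC4 calcium response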
T2 sequence (Q9QUQ5 whole entry): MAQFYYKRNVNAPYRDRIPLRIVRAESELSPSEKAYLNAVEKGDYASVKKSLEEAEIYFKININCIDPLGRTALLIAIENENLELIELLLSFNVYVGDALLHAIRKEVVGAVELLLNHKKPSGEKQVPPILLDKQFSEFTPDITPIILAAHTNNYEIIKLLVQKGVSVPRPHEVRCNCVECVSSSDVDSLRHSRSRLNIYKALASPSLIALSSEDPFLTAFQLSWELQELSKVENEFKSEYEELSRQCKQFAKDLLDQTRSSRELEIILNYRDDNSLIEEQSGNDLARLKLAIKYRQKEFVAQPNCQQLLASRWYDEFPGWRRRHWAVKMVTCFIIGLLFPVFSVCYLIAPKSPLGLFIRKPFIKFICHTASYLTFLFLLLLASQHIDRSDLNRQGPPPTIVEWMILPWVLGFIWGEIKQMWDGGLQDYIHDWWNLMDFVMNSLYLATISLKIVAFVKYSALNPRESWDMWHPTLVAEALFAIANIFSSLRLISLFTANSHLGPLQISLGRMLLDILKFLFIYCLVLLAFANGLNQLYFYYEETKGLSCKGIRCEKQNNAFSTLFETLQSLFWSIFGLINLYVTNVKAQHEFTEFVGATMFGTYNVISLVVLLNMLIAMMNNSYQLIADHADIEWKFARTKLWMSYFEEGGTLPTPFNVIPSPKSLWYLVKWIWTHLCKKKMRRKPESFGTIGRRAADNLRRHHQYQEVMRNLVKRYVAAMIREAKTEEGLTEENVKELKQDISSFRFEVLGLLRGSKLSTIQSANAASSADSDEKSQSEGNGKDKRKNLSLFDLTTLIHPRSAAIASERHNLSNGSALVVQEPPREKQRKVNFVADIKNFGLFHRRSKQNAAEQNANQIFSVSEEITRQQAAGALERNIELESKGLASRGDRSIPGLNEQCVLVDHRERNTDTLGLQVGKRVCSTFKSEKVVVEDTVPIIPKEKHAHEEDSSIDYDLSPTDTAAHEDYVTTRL

[13] = biological target: T3, Microphthalmia-associated transcription factor (Homo sapiens, UniProt O75030); experiment: TRPM1 promoter luciferase signal decrease, dose response, MITF inhibitor project, cell-based, SK-MEL-5, cherry-picked, set 3 (AID 493073); format: functional
T3 sequence (O75030 whole entry): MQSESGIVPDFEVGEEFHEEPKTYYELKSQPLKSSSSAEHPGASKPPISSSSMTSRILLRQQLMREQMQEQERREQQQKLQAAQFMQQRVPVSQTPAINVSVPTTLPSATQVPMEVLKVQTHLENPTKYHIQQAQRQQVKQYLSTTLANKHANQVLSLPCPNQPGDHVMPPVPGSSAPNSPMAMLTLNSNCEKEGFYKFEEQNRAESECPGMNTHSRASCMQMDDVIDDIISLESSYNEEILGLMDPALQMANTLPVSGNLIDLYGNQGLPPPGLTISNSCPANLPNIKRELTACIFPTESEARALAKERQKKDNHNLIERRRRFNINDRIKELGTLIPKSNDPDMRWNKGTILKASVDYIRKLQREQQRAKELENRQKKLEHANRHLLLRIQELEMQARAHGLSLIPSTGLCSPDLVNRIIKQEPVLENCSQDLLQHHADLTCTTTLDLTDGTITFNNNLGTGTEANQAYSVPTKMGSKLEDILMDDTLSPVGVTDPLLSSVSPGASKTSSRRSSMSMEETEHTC

Nonstructural protein 1 = Nonstructural protein 1 (Influenza A virus, UniProt Q194T2); format: functional, Influenza A virus (A/California/07/2009(H1N1))
[14] = biological target: T4, Calpain-2 catalytic subunit (Sus scrofa, UniProt P43367); experiment: pig calpain II inhibitor potency, dose response, biochemical, fluorogenic peptide substrate (AID 1420); format: functional
T4 sequence (P43367 whole entry): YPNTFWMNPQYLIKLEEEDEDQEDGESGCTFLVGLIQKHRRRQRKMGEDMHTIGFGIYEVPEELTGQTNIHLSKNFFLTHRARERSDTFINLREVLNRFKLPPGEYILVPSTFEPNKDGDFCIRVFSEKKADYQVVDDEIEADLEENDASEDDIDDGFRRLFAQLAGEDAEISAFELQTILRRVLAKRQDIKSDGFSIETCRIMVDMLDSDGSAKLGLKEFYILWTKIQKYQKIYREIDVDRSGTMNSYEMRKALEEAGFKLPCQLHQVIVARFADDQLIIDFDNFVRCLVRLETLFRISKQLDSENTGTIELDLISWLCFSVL

[15] = biological target: Voltage-gated inwardly rectifying potassium channel KCNH2 (Homo sapiens, UniProt Q12809); experiment: hERG protection from proarrhythmic block, potency, dose response, cell-based, thallium flux (AID 2121); format: ADME
[16] = Luminescence Cell-Based Dose Retest to Confirm Inhibitors of Cancer Stem Cells. [Related pubchem assays (depositor defined):AID2717, AID2721]; format: functional, Homo sapiens; conditions: Homo sapiens
Protein skinhead-1 = biological target: T5, Protein skinhead-1 (Caenorhabditis elegans, UniProt P34707); format: functional
T5 sequence (P34707 whole entry): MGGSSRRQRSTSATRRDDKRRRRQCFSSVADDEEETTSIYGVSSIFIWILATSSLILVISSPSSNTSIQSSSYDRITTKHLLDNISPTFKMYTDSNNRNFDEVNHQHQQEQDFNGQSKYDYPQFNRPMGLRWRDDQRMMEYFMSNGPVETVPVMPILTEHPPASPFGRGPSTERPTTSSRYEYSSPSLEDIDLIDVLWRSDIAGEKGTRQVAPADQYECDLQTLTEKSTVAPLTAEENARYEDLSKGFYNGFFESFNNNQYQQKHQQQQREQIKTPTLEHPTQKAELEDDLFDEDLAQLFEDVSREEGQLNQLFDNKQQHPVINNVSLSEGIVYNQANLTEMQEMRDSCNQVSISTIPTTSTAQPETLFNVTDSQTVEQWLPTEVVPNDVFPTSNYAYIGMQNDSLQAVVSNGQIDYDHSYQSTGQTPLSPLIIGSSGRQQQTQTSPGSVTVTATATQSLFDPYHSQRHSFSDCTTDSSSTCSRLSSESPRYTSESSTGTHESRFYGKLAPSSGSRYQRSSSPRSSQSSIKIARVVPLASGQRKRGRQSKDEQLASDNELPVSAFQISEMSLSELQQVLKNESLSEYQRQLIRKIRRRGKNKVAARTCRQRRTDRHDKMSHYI

[17] = biological target: Protein-tyrosine kinase 2-beta (Homo sapiens, UniProt Q14289);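 further: potency of inhibitors of PYK2 kinase phosphorylation of poly-GT substrate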
Estrogen receptor beta = Estrogen receptor beta (Homo sapiens, UniProt Q92731); experiment: ERβ–SRC-3 coactivator interaction inhibitors, confirmation, orthogonal assay, biochemical, ELISA, streptavidin-HRP readout (AID 1060)
[18] = biological target: T6, Rac GTPase-activating protein 1 (Homo sapiens, UniProt Q9H0H5); experiment: MgcRacGAP GTPase-activating activity inhibitors, confirmation, biochemical, ADP Hunter fluorescence, primary and confirmatory (AID 624330); format: functional
T6 sequence (Q9H0H5 whole entry): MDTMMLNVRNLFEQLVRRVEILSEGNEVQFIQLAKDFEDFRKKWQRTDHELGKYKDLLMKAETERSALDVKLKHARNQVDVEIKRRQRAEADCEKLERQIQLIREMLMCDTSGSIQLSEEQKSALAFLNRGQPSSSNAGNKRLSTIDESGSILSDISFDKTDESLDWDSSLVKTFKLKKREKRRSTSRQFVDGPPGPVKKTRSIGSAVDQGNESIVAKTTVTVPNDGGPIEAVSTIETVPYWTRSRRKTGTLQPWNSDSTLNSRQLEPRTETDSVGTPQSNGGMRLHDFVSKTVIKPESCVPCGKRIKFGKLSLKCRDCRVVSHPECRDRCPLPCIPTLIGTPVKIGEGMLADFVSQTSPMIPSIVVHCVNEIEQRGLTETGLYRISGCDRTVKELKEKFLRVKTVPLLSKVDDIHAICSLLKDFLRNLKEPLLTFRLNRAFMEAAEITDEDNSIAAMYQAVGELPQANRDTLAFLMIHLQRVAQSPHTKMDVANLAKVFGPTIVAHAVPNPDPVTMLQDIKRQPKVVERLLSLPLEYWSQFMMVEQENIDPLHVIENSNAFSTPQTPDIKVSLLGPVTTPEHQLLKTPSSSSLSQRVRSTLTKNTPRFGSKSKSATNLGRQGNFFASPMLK

Protein-tyrosine kinase 2-beta, sequence (Q14289 whole entry): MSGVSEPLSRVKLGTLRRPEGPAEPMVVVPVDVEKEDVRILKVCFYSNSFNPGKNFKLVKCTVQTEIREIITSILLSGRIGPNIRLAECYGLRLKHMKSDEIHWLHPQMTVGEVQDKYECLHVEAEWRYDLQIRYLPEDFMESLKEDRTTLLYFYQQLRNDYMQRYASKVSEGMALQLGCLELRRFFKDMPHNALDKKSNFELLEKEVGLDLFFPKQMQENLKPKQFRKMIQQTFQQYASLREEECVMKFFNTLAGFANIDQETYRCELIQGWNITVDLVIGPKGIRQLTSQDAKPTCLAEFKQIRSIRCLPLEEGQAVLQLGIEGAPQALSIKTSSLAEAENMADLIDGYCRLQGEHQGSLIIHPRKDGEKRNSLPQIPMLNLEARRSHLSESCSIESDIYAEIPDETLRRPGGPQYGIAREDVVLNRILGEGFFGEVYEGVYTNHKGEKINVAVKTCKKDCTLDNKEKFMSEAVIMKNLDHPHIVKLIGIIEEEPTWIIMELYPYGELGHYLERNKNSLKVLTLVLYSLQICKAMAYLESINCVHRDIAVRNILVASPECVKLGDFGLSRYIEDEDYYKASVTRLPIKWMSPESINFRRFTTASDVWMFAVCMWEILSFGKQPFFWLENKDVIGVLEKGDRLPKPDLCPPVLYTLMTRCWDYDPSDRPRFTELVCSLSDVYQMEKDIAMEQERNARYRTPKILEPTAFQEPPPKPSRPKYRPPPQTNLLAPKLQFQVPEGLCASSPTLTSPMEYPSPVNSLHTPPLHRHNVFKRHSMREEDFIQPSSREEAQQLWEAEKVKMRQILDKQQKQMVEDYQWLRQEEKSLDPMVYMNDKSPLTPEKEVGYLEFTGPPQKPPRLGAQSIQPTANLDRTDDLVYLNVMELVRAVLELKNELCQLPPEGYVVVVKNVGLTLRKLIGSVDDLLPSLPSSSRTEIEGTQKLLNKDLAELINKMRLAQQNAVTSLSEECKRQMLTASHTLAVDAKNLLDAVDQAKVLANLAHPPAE
Voltage-gated inwardly rectifying potassium channel KCNH2, sequence (Q12809 whole entry): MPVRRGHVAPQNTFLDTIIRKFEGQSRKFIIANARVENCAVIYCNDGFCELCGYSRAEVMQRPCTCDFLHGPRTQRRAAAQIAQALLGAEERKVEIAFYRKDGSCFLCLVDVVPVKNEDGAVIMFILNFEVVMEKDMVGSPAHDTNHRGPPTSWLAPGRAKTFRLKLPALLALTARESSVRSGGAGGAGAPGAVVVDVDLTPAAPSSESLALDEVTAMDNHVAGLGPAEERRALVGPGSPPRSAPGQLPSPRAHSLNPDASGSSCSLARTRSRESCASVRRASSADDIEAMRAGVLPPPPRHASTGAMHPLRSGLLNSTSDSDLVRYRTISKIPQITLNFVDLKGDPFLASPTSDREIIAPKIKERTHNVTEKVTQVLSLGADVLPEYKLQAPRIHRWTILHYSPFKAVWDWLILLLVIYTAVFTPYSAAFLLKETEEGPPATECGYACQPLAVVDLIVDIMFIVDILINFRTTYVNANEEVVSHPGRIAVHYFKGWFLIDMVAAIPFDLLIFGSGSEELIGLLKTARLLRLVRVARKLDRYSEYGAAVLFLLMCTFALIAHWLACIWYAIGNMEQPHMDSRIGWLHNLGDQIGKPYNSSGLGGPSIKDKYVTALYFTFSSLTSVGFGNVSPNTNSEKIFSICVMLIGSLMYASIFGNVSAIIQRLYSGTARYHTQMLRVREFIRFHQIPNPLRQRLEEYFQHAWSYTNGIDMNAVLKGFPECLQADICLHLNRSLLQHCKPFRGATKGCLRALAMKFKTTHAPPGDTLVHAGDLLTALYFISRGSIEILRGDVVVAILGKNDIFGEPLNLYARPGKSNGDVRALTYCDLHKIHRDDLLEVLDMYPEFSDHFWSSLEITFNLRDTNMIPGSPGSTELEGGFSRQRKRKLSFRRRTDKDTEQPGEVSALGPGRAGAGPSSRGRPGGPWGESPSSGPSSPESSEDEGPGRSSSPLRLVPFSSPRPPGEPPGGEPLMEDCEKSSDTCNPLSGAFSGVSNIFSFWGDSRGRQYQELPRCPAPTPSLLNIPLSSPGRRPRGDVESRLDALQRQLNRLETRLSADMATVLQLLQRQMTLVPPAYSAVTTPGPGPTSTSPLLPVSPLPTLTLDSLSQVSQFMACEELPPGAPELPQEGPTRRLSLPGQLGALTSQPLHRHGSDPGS
ATP-dependent molecular chaperone HSP82, sequence (C4YTQ8 whole entry): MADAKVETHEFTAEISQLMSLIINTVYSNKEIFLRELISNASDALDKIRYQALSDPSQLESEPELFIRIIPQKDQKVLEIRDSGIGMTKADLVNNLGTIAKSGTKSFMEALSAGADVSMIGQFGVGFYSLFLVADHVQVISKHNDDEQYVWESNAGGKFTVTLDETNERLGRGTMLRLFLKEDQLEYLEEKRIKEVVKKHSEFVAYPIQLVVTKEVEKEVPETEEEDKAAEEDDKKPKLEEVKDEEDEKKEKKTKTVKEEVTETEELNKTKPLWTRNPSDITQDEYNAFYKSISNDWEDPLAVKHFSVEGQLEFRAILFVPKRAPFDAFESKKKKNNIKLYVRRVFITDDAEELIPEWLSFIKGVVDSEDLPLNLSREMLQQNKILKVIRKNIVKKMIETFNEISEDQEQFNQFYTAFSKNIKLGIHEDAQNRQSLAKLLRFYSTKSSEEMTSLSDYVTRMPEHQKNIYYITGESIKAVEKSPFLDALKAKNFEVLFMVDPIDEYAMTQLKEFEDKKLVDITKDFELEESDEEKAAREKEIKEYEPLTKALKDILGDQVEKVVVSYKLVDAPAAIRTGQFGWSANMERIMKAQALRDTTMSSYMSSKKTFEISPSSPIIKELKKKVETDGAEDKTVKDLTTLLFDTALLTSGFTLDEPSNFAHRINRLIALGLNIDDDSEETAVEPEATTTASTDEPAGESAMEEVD
Nonstructural protein 1, sequence (Q194T2 whole entry): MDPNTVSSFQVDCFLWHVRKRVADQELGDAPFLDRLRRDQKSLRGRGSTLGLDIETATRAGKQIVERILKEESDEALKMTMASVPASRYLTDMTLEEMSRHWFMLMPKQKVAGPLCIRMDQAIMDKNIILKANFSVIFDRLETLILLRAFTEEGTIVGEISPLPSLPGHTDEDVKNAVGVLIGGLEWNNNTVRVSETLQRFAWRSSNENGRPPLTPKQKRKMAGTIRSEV
Estrogen receptor beta, sequence (Q92731 whole entry): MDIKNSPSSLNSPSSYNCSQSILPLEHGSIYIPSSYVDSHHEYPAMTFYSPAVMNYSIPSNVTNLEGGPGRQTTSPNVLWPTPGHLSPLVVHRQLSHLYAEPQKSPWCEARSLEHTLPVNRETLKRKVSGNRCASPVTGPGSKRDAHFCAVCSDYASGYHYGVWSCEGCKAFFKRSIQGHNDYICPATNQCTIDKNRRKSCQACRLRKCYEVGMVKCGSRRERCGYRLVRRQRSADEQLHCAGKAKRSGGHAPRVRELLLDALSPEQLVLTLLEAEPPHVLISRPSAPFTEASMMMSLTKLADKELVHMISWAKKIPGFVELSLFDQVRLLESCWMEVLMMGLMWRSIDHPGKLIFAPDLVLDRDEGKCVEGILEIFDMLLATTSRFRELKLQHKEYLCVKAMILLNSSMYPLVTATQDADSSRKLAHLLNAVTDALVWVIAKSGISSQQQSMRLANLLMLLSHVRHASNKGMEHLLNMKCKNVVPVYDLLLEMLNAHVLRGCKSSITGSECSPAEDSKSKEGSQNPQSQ

CCOC(=O)CNC(=O)CSc1ncnc2c1nnn2-c1ccc(F)cc1
IC50 [1]: > 100 µM (active)

O=C(Oc1c(CN2CCOCC2)cc(Cl)c2cccnc12)c1ccc(F)cc1
EC50 [2]: 4.28 µM (active) | EC50 [3]: > 160 µM (inactive) | EC50 [4]: > 180 µM (inactive) | AC50 [5]: 5.7 µM (active) | EC50 [6]: > 160 µM (inconclusive) | AC50 [7]: 9.1 µM (active) | EC50 [8]: 12.7 µM (active) | EC50 [9]: > 60 µM (not active) | EC50 [10]: 1.54 µM (active) | AC50 (INS1): 3.99 µM (active) | EC50 [11]: 4.69 µM (active)

Cc1ccc(-c2c[n+](Cc3cccc(Cl)c3)c3n2CCC3)cc1
EC50 [12]: 1.33 µM (active) | EC50 (cells): 0.025 µM (active) | EC50 [9]: > 30 µM (not active) | AC50 [13]: 12.2 µM (active) | EC50 [11]: < 0.1 µM (active)

N#C/C(=C/c1ccc(-c2ccc(Br)cc2)o1)C(=O)NC1CCCCC1
IC50 [1]: > 100 µM (active)

CCOC(=O)C1CCN(Cc2c[nH]nc2-c2ccc(C)cc2)CC1
EC50 [2]: > 20 µM (not active) | EC50 [8]: > 20 µM (not active)

Cc1ccc(C(C#N)c2ccc3c(C(F)(F)F)cc(C(F)(F)F)nc3n2)cc1 (centres undefined)
IC50 (Nonstructural protein 1): 24.4 µM (active) | IC50 [14]: > 50 µM (not active) | EC50 [15]: 6 µM (active) | AC50 [16]: 1.78 µM (active) | IC50 (Protein skinhead-1): > 100 µM (inactive)

Cc1nn2c(c1-c1ccccc1)N=C1CCCC(O)=C1C2c1ccccc1 (centres undefined)
IC50 [17]: > 69.5 µM (not active)

Cc1ccccc1-c1ccc(Nc2ccc(N3CCOCC3)cc2)nn1
IC50 (Estrogen receptor beta): < 0.023 µM (not active) | IC50 [18]: 79.6 µM (active) | EC50 [9]: > 60 µM (not active) | IC50 [17]: 14.5 µM (not active) | EC50 [11]: 1.42 µM (active)

CN(C)CCN(C(=O)c1cc(Cl)sc1Cl)c1nc2ccc(F)cc2s1
EC50 (cells): 0.211 µM (active) | EC50 [9]: > 60 µM (not active) | EC50 [11]: < 0.1 µM (active)
